Experiment [1] concerns influenza A(H1N1) virus with PA E23K. The conditions noted are these: cited from earlier work.
Experiment [2] has as its system influenza A(H3N2) virus with PA N412D. The conditions noted are these: cited from earlier work.
Experiment [3] relates to A/Chiba/1017/2009 (NA H275Y). Type of experiment: cell-based, influenza A(H1N1)pdm09 virus.
The test system of experiment [4] is A/Fukui/20/2004 (NA 119E wild-type). Description: microbe, parasite or virus in culture. The conditions noted are these: Influenza A virus, MDCK, 72 h, read-out: IC50, plaque reduction. Type of experiment: cell-based, influenza A(H3N2) virus.
Experiment [5] has as its system A/Kagoshima/4/2012 (NA 292R wild-type). The experiment is described as follows: microbe, parasite or virus in culture. Type of experiment: cell-based, influenza A(H3N2) virus. As to conditions: Influenza A virus, MDCK, 24 h, read-out: IC50, focus reduction.
The subject of experiment [6] is A/Kagoshima/2/2012 (NA R292K). Type of experiment: cell-based, influenza A(H3N2) virus.
Experiment [7] has as its system influenza A(H1N1) viruses with PA I38T. The conditions noted are these: cited from earlier work.
In experiment [8] the test system is A/Fukui/45/2004 (NA E119V). Type of experiment: cell-based, influenza A(H3N2) virus.
The subject of experiment [9] is influenza A(H3N2) virus with PA P632S. The conditions noted are these: cited from earlier work.
The subject of experiment [10] is A/Kagoshima/4/2012 (NA 292R wild-type). Description: microbe, parasite or virus in culture. Type of experiment: cell-based, influenza A(H3N2) virus. The conditions noted are these: Influenza A virus, MDCK, 72 h, read-out: IC50, plaque reduction.
The test system of experiment [11] is A/Fukui/20/2004 (NA 119E wild-type). The experiment is described as follows: microbe, parasite or virus in culture. Type of experiment: cell-based, influenza A(H3N2) virus. As to conditions: Influenza A virus, MDCK, 24 h, read-out: IC50, focus reduction.
Experiment [12] has as its system influenza B virus with PA G548R. The conditions noted are these: cited from earlier work.
Experiment [13] deals with influenza A(H1N1) virus with PA I38T. As to conditions: cited from earlier work.
The test system of experiment [14] is influenza A(H1N1) virus with PA I38F. As to conditions: cited from earlier work.
Experiment [15] deals with A/Chiba/1017/2009 (NA H275Y). Type of experiment: cell-based, influenza A(H1N1)pdm09 virus. The source holds these as a separate data set.
For experiment [16], the system named is A/Fukui/45/2004 (NA E119V). Type of experiment: cell-based, influenza A(H3N2) virus. The source holds these as a separate data set.
Experiment [17] concerns B/Perth/211/2001-197D (NA 197D wild-type). The experiment is described as follows: microbe, parasite or virus in culture. Type of experiment: cell-based. The conditions noted are these: Influenza B virus, MDCK, 72 h, read-out: IC50, plaque reduction.
Experiment [18] shares this test system. Description: microbe, parasite or virus in culture. Type of experiment: cell-based. As to conditions: Influenza B virus, MDCK, 24 h, read-out: IC50, focus reduction.
In experiment [19] the test system is A/PR/8/34-PA/I38T. Type of experiment: cell-based, influenza A(H1N1) virus.
For experiment [20], the system named is influenza A(H3N2) virus with PA I38M. The conditions noted are these: cited from earlier work.
The test system of experiment [21] is influenza A(H3N2) virus with PA I38T. As to conditions: cited from earlier work.
The test system of experiment [22] is influenza A(H3N2) virus with PA V517A. The conditions noted are these: cited from earlier work.
Experiment [23] concerns influenza A(H3N2) virus with PA E199G. The conditions noted are these: cited from earlier work.
The test system of experiment [24] is A/PR/8/34 (PA 38I wild-type). The experiment is described as follows: microbe, parasite or virus in culture. Type of experiment: cell-based, influenza A(H1N1) virus. As to conditions: Influenza A virus, PR/8, MDCK, 24 h, read-out: IC50, focus reduction.
The test system of experiment [25] is A/Kagoshima/2/2012 (NA R292K). Type of experiment: cell-based, influenza A(H3N2) virus. This is another data set of the same source.
The subject of experiment [26] is influenza A(H3N2) virus with PA A37T. As to conditions: cited from earlier work.
In experiment [27] the test system is A/PR/8/34-PA/I38T. Type of experiment: cell-based, influenza A(H1N1) virus. The conditions noted are these: read-out: IC50, plaque reduction.
The test system of experiment [28] is B/Perth/211/2001-197E (NA D197E). Type of experiment: cell-based, influenza B virus.
The test system of experiment [29] is A/PR/8/34 (PA 38I wild-type). Description: microbe, parasite or virus in culture. Type of experiment: cell-based, influenza A(H1N1) virus. As to conditions: Influenza A virus, PR/8, MDCK, 72 h, read-out: IC50, plaque reduction.
For experiment [30], the system named is B/Perth/211/2001-197E (NA D197E). Type of experiment: cell-based, influenza B virus. This is another data set of the same source.
Experiment [31] concerns A/Chiba/1016/2009 (NA 275H wild-type). The experiment is described as follows: microbe, parasite or virus in culture. As to conditions: Influenza A virus, MDCK, 72 h, read-out: IC50, plaque reduction. Type of experiment: cell-based, influenza A(H1N1)pdm09 virus.
For experiment [32] the test system is unchanged. Description: microbe, parasite or virus in culture. As to conditions: Influenza A virus, MDCK, 24 h, read-out: IC50, focus reduction. Type of experiment: cell-based, influenza A(H1N1)pdm09 virus.
The target in experiment [33] is A/Fukui/45/2004 (NA E119V) neuraminidase (NA) (Influenza A virus, UniProt C6ELZ0, E119V). Type of experiment: biochemical, influenza A(H3N2) virus.
Experiment [34] deals with B/Perth/211/2001-197E (NA D197E) neuraminidase (NA) (Influenza B virus, UniProt Q3S340, D197E). Type of experiment: biochemical.
Experiment [35] has as its target B/Perth/211/2001-197D (NA 197D wild-type) neuraminidase (NA) (Influenza B virus, UniProt Q3S340). Type of experiment: biochemical.
Experiment [36] deals with A/Kagoshima/2/2012 (NA R292K) neuraminidase (NA) (Influenza A virus, UniProt J9TKI7, R292K). Type of experiment: biochemical, influenza A(H3N2) virus.
The target of experiment [37] is A/Chiba/1017/2009 (NA H275Y) neuraminidase (NA) (Influenza A virus, UniProt C7FH46, H275Y). Type of experiment: biochemical, influenza A(H1N1)pdm09 virus.
Experiment [38] concerns the target A/Fukui/20/2004 (NA 119E wild-type) neuraminidase (NA) (Influenza A virus, UniProt C6ELZ0). Type of experiment: biochemical, influenza A(H3N2) virus.
Experiment [39] has as its target A/PR/8/34 (PA 38I wild-type) neuraminidase (NA) (Influenza A virus, UniProt P03468). Type of experiment: biochemical, influenza A(H1N1) virus.
Experiment [40] deals with A/Chiba/1016/2009 (NA 275H wild-type) neuraminidase (NA) (Influenza A virus, UniProt C7FH46). Type of experiment: biochemical, influenza A(H1N1)pdm09 virus.
The target of experiment [41] is A/Kagoshima/4/2012 (NA 292R wild-type) neuraminidase (NA) (Influenza A virus, UniProt J9TKI7). Type of experiment: biochemical, influenza A(H3N2) virus.
Experiment [42] concerns the target A/PR/8/34-PA/I38T neuraminidase (NA) (Influenza A virus, UniProt P03468).
The mark [43] stands for this setting: read-out: IC50, plaque reduction.
Where [44] appears, read: read-out: IC50, focus reduction.

The structures appear in SMILES notation. Where “and” joins values, the source holds several entries; their conditions need not be identical. Equal values may be shown once. Read-outs that look alike come from different tables or passages of the source.

The text below walks through data of article PMC6291754 (Frontiers in Microbiology, 2018).

By IC50 is commonly meant the concentration that gives 50% inhibition.

Turning to `O=C1c2c(O)c(=O)ccn2N([C@@H]2c3ccccc3SCc3c2ccc(F)c3F)[C@@H]2COCCN12` [Baloxavir, baloxavir acid], the “fold higher EC50” value in [1] was 4.7 fold; in [13], 27.2 fold; in [14], 10.6 fold; in experiment [20], 13.8 fold; in [21], 56.6 fold; in experiment [23], 4.5 fold. Further, the “fold higher EC50” value in experiment [26] was 8.1 fold. The “effect of substitution on baloxavir susceptibility” value in [2] was “not affected”; in [9] it was “not affected”; in experiment [12], “does not affect baloxavir susceptibility”; in experiment [22] it was “not affected”. The “IC50 fold-change, plaque reduction” value in [3] was 0.21 ± 0.02 (0.8) fold; in [6], 0.22 ± 0.09 (1.5) fold; in experiment [8], 0.15 ± 0.02 (0.4) fold; in experiment [30], 5.68 ± 1.00 (2.6) fold. For the same molecule, the IC50 worked out at 0.21 nM in experiment [3] (setting [43]); 0.42 ± 0.15 nM in [4]; 0.29 ± 0.08 nM in experiment [5]; 0.22 nM in experiment [6] (setting [43]); 0.15 nM in experiment [8] (setting [43]); 0.15 ± 0.06 nM in [10]. Further, the IC50 in [11] came to 1.18 ± 0.49 nM; in experiment [15] (setting [44]), 0.53 nM; in experiment [16] (setting [44]) it was 0.62 nM; in [17], 2.2 ± 0.28 nM; in experiment [18], 5.41 ± 1.99 nM; with A/PR/8/34-PA/I38T [19] (setting [44]), 7.4 nM. Further, the IC50 in [24] turned out to be 0.17 ± 0.03 nM; in experiment [25] (setting [44]) it was 0.59 nM; in the experiment with A/PR/8/34-PA/I38T [27], 2.72 nM; in experiment [28] (setting [44]), 5.63 nM; in [29] it was 0.05 ± 0.02 nM; in [30] (setting [43]), 5.68 nM. For the same molecule, the IC50 in experiment [31] is 0.27 ± 0.09 nM; in experiment [32], 0.5 ± 0.02 nM. Besides, in experiment [7], the “fold-change in EC50” value was 41 fold and 40 fold. Also, the “IC50 fold-change, focus reduction” value in experiment [15] is 0.53 ± 0.15 (1.0) fold; in experiment [16], 0.62 ± 0.04 (0.5) fold; in the experiment with A/PR/8/34-PA/I38T [19] it was 44 fold; in experiment [25] it was 0.59 ± 0.29 (2.0) fold; in [28], 5.63 ± 2.34 (1.0) fold.

As for `CO[C@@H]([C@@H]1OC(C(=O)O)=C[C@H](NC(=N)N)[C@H]1NC(C)=O)[C@H](O)CO` [Laninamivir], the “NA inhibitor susceptibility (WHO criteria)” value (from here on “NA inhibitor susceptibility”) in [33] was determined as 1.2 ± 0.1 NI; in [34] it was 1.9 ± 0.1 NI; in experiment [36], 3.9 ± 0.1 NI; in experiment [37], 0.3 ± 0.1 NI. Inhibition in experiment [35] was half-maximal at 1.3 ± 0.3 nM (IC50).

Consider `CCC(CC)[C@H](NC(C)=O)[C@@H]1[C@H](O)[C@@H](C(=O)O)C[C@H]1N=C(N)N` [Peramivir, peramivir], for which the IC50 amounted to 0.2 ± 0.1 nM in experiment [33]; 0.2 ± 0.1 nM in experiment [38]; 0.09 ± 0.01 nM in experiment [39]; 16.2 ± 6 nM in experiment [34]; 0.1 ± 0.1 nM in experiment [40]; 0.4 ± 0.1 nM in [35] (read-out: IC50). Also, the IC50 in experiment [36] came out at 35.2 ± 2.6 nM; in experiment [37], 28 ± 3.9 nM; in [41] it was 0.1 ± 0.1 nM; in experiment [42] it was 0.09 nM. Besides, the “NA inhibitor susceptibility” value is 0.2 ± 0.1 NI in experiment [33] and 16.2 ± 6.0 RI (key: normal inhibition (NI); RI: a 5- to 50-fold increase in IC50 for influenza B viruses; HRI: influenza B viruses with >50-fold increase in IC50) in experiment [34]. The IC50 fold-change in experiment [42] is given as 0.09 ± 0.01 (1.0) fold.

For `CC(=O)N[C@H]1[C@H]([C@H](O)[C@H](O)CO)OC(C(=O)O)=C[C@@H]1N=C(N)N` [Zanamivir, zanamivir], the “NA inhibitor susceptibility” value in experiment [37] is listed as 0.5 ± 0.1 NI.
